Results from US5434136A, “Treatment of motility disorders with a GNRH analog” (priority 1992, dated 1995).

Key:
[1] = system: irritable bowel syndrome; conditions: patient, three months
Protocol: The patient, a patient suffering from irritable bowel syndrome presented symptoms of nausea, vomiting, abdominal pain, and altered bowel habits. This patient was treated with lupron, 2.0 mg/day by subcutaneous injection, for a period of six months. […] Nafarelin is a GnRH analog available from SYNTEX, which differs from the natural GnRH peptide in a D-Nal (2)^6 substitution. […] Nafarelin therapy was discontinued, and treatment with Danazol, a 17-ethyltestosterone derivative known to antagonize GnRH receptors at the level of the pituitary, was begun, at 200 mg four times daily, P.O., for a period of three months.

[2] = system: diseases of the autonomic nervous system; conditions: cited from earlier work; for Success of therapy: patients with mild to moderate disease symptoms; for Relief of symptoms: mild to moderate symptoms; for Relief of symptoms / Effectiveness in patients with severe symptoms: experimental drugs

With C#C[C@]1(O)CC[C@H]2[C@@H]3CCC4=Cc5oncc5C[C@]4(C)[C@H]3CC[C@@]21C [Danazol] the Therapeutic effect ([1]; 200 mg four times daily, P.O.) was “only minimal therapeutic effect”.

In the case of CC(C)C[C@H](NC(=O)[C@@H](Cc1ccc2ccccc2c1)NC(=O)[C@H](Cc1ccc(O)cc1)NC(=O)[C@H](CO)NC(=O)[C@H](Cc1c[nH]c2ccccc12)NC(=O)[C@H](Cc1c[nH]cn1)NC(=O)[C@@H]1CCC(=O)N1)C(=O)N[C@@H](CCCNC(=N)N)C(=O)N1CCC[C@H]1C(=O)NCC(N)=O [Nafarelin], the “Blood levels of FSH and LH” value ([1]; 2.0 mg/day s.c.) is reported as “effectively reduced their blood levels of FSH and LH” and the “Symptoms of irritable bowel disease” value ([1]; 2.0 mg/day s.c.) is reported as “effectively reduced the symptoms of their irritable bowel disease”.

For CC(C[N+](C)(C)C)OC(N)=O (stereo not drawn) [bethanechol], the Success of therapy [2] is listed as “limited success”.

In the case of COc1cc(N)c(Cl)cc1C(=O)NC1CCN(CCCOc2ccc(F)cc2)CC1OC (stereo not drawn) [cisapride], the Relief of symptoms [2] is listed as “limited relief of mild to moderate symptoms” and the “Effectiveness in patients with severe symptoms” value [2] is listed as “not been effective”.

In the case of O=c1[nH]c2ccccc2n1CCCN1CCC(n2c(=O)[nH]c3cc(Cl)ccc32)CC1 [domperidone], the Relief of symptoms [2] is given as “limited relief of mild to moderate symptoms” and the “Effectiveness in patients with severe symptoms” value [2] is given as “not been effective”.

For CCN(CC)CCNC(=O)c1cc(Cl)c(N)cc1OC [metoclopramide], the Success of therapy [2] is given as “limited success”.
